We go through nine molecules from PubChem BioAssay (NCI).

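Protocol summary: plate cells (96-well), add compound at 5 concentrations, incubate 48 h, interpolate endpoints linearly. GI50: concentration for 50% inhibition of growth. TGI: total growth inhibition.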

Among the test systems are COLO 205 colon; HCC-2998 colon; HCT-15 colon; HOP-62 NSCLC; IGROV1 ovarian; K-562 leukemia; NCI-H226 lung; SK-OV-3 ovarian; SNB-19 CNS; SR leukemia.
Holding throughout (test): DTP human tumour cell line panel, 48 h

For the molecule `Cc1cc(Br)cc(C)c1NC(=O)C(=O)C(C(=O)c1ccc(Cl)c(Cl)c1)C1OC(=O)c2ccccc21` (stereo not given), the TGI in the experiment on COLO 205 colon, with HCC-2998 colon, with HCT-15 colon, with HOP-62 NSCLC, in the experiment on IGROV1 ovarian and in the experiment on K-562 leukemia was more than 100 µM in each case. In addition, the TGI with NCI-H226 lung, with SK-OV-3 ovarian, in the experiment on SNB-19 CNS and in the experiment with SR leukemia was more than 100 µM each time.
Take `O=C1CCCc2c(O)ccc(O)c21`: the TGI in the experiment on COLO 205 colon, in the experiment on HCC-2998 colon, with HCT-15 colon, with HOP-62 NSCLC, in the experiment on IGROV1 ovarian and in the experiment on K-562 leukemia was more than 100 µM in each case. For the same molecule, the TGI is more than 100 µM in the experiment with NCI-H226 lung, more than 100 µM in the experiment with SK-OV-3 ovarian, more than 100 µM in the experiment on SNB-19 CNS and 91.2 µM with SR leukemia.
Regarding `COc1ccc(-c2nc(N)nc(-c3cc(C)ccc3O)c2Cl)cc1`, the TGI with COLO 205 colon, with HCC-2998 colon, in the experiment on HCT-15 colon, with HOP-62 NSCLC, in the experiment with IGROV1 ovarian and in the experiment on K-562 leukemia was more than 100 µM in each case. The TGI in the experiment with NCI-H226 lung was more than 100 µM; in the experiment with SK-OV-3 ovarian, 94.2 µM; in the experiment on SNB-19 CNS it was more than 100 µM; in the experiment with SR leukemia, more than 100 µM.
In the case of `Fc1cc(Nc2ccc3c(OCCCN4CCOCC4)cccc3n2)ccc1Cl`, the GI50 was 1.82 µM with COLO 205 colon; 1.78 µM in the experiment on HCC-2998 colon; 1.4 µM with HCT-15 colon; 1.71 µM in the experiment on HOP-62 NSCLC; 3.19 µM in the experiment on IGROV1 ovarian; 1.91 µM in the experiment on K-562 leukemia. For the same molecule, the GI50 in the experiment on NCI-H226 lung was 2.76 µM; with SK-OV-3 ovarian, 2.24 µM; with SNB-19 CNS it was 2.21 µM; in the experiment with SR leukemia it was 1.69 µM. Moreover, the TGI was determined as 3.43 µM in the experiment on COLO 205 colon; 3.49 µM in the experiment with HCC-2998 colon; 3.06 µM with HCT-15 colon; 3.43 µM with HOP-62 NSCLC; 9.32 µM in the experiment on IGROV1 ovarian; 4.38 µM in the experiment on K-562 leukemia. Besides, the TGI is 7.83 µM in the experiment with NCI-H226 lung, 4.72 µM in the experiment with SK-OV-3 ovarian, 5.29 µM with SNB-19 CNS and 6.64 µM with SR leukemia.
As to `Fc1ccc(-c2c(-c3ccncc3)n(CCN3CCOCC3)c3cccnc23)cc1`, the GI50 in the experiment with COLO 205 colon, in the experiment on HCC-2998 colon, with HCT-15 colon, in the experiment with HOP-62 NSCLC, in the experiment on IGROV1 ovarian and in the experiment on K-562 leukemia was more than 25 µM in each case. Moreover, the GI50 in the experiment on NCI-H226 lung, with SK-OV-3 ovarian, in the experiment with SNB-19 CNS and with SR leukemia was more than 25 µM in each case. Also, the TGI with COLO 205 colon, with HCC-2998 colon, in the experiment on HCT-15 colon, in the experiment on HOP-62 NSCLC, in the experiment with IGROV1 ovarian and in the experiment on K-562 leukemia was more than 25 µM in each case. Besides, the TGI with NCI-H226 lung, in the experiment on SK-OV-3 ovarian, with SNB-19 CNS and in the experiment with SR leukemia was more than 25 µM each time.
In the case of `NC(=O)c1ccc(-c2c3ccccc3cc3c2ccc2ccccc23)cc1`, the GI50 in the experiment on COLO 205 colon is 3.82 µM; with HCC-2998 colon it was 5.22 µM; with HCT-15 colon it was 2.81 µM; in the experiment with HOP-62 NSCLC, 4.28 µM; in the experiment with IGROV1 ovarian it was 7.6 µM; with K-562 leukemia, 1.5 µM. In addition, the GI50 in the experiment with NCI-H226 lung was 6.97 µM; in the experiment on SK-OV-3 ovarian, 4.02 µM; in the experiment with SNB-19 CNS, 5.51 µM; in the experiment with SR leukemia it was 1.3 µM. Also, the TGI was 36.5 µM in the experiment with COLO 205 colon; 82.4 µM in the experiment with HCC-2998 colon; more than 100 µM with HCT-15 colon; 23.2 µM in the experiment on HOP-62 NSCLC; more than 100 µM in the experiment on IGROV1 ovarian; more than 100 µM with K-562 leukemia. In addition, the TGI is 52.3 µM in the experiment with NCI-H226 lung, 24.2 µM in the experiment with SK-OV-3 ovarian, 46.9 µM in the experiment with SNB-19 CNS and more than 100 µM with SR leukemia.
`O=C(N/N=C\c1cc(Cl)ccc1O)N/N=C/c1cc(Cl)ccc1O`: the GI50 in the experiment with COLO 205 colon is 4.92 µM; in the experiment on HCC-2998 colon, 3.34 µM; in the experiment with HCT-15 colon it was 0.676 µM; in the experiment on HOP-62 NSCLC, 2.49 µM; with IGROV1 ovarian, 1.56 µM; with K-562 leukemia, 0.572 µM. The GI50 in the experiment on NCI-H226 lung is more than 100 µM; with SK-OV-3 ovarian, more than 100 µM; in the experiment on SNB-19 CNS, more than 100 µM; in the experiment with SR leukemia, 78.5 µM. For the same molecule, the TGI in the experiment on COLO 205 colon, in the experiment with HCC-2998 colon, in the experiment with HCT-15 colon, in the experiment on HOP-62 NSCLC, with IGROV1 ovarian and in the experiment with K-562 leukemia was more than 100 µM in each case. Further, the TGI with NCI-H226 lung, in the experiment with SK-OV-3 ovarian, with SNB-19 CNS and in the experiment with SR leukemia was more than 100 µM each time.
`Cc1ccc(C)c2sc3cc(=O)ccc-3nc12`: the concentration for total growth inhibition (TGI) is more than 100 µM with COLO 205 colon; more than 100 µM in the experiment with HCC-2998 colon; more than 100 µM with HCT-15 colon; more than 100 µM in the experiment on HOP-62 NSCLC; more than 100 µM with IGROV1 ovarian; 79.6 µM in the experiment with K-562 leukemia. The total growth inhibition concentration (TGI) with NCI-H226 lung, with SK-OV-3 ovarian, with SNB-19 CNS and with SR leukemia was more than 100 µM in each case.
`CN1C=CN(Cc2ccc(-c3ccccn3)nc2)[CH-]1.CN1C=CN(Cc2ccc(-c3ccccn3)nc2)[CH-]1.[Au+3]`: the GI50 was 0.421 µM with COLO 205 colon; 5.47 µM with HCC-2998 colon; 1.6 µM in the experiment on HCT-15 colon; 8.31 µM in the experiment on HOP-62 NSCLC; 1.42 µM in the experiment on IGROV1 ovarian; 0.54 µM with K-562 leukemia. Moreover, the GI50 in the experiment on NCI-H226 lung is 5.65 µM; in the experiment with SK-OV-3 ovarian, 9.32 µM; in the experiment with SNB-19 CNS, 7.83 µM; with SR leukemia, 0.372 µM. The TGI in the experiment on COLO 205 colon was 17.8 µM; in the experiment with HCC-2998 colon it was more than 42.7 µM; in the experiment with HCT-15 colon, more than 54.6 µM; with HOP-62 NSCLC, 25.8 µM; in the experiment with IGROV1 ovarian, 10.3 µM; in the experiment with K-562 leukemia it was more than 100 µM. For the same molecule, the TGI is more than 64.2 µM with NCI-H226 lung, more than 56.7 µM with SK-OV-3 ovarian, 40 µM in the experiment on SNB-19 CNS and 42.7 µM in the experiment on SR leukemia.
